Test results taken from patent US8008074B2, “Compositions and methods for improving bone mass through modulation of receptors of PTH and fragments thereof” (The UAB Research Foundation, priority 2006, dated 2011).

Key:
[1] = target: T1, TGFβRII/PTH1R interaction (Homo sapiens, UniProt P37173+Q03431); assay: Co-immunoprecipitation of TGFβRII and PTH1R in 293 cells; type: cell-based; conditions: cotransfected HEK293 cells; 10% FBS medium; PTH stimulation
T1 construct: The 293T cells endogenously expressed TGFβRII; endogenous in cells; host or cells: 293T
Experimental: Human embryonic kidney 293T cells in DMEM with 10% serum were treated with vehicle (water), TGF-β (2 ng/ml), or PTH (1-34) (50 nM) for 24 hours. The 293T cells endogenously expressed TGFβRII. The cells were cultured in DMEM with 10% serum and were split at 30%-40% confluent.
Immunoprecipitation assays were performed as described previously (Shi et al., 2004, J. Cell. Biol. 164:291-300). TGFβRII was immunoprecipitated from the cell extracts using anti-TGFβRII antibody (Santa Cruz Biotechnology, Inc.; 1:250 dilution), and the immunocomplex was detected by Western blotting with an antibody specific for PTH1R (Santa Cruz Biotechnology, Inc.; 1:200 dilution) to detect PTH1R protein. […] Furthermore, the interaction of PTH1R with TGFβRII can be in the form of monomers or dimers.
Next, the interaction was examined using a biochemical approach. PTH1R-HA was contransfected in HEK293 cells with Flag-TβRII. The cell lysate was subjected to HA immunoprecipitation, and associated TβRII was immunoblotted with anti-Flag antibody. TβRII specifically coprecipitated with PTH1R (FIG. 11) in 10% FBS medium, and the interaction was enhanced by PTH stimulation, whereas the kinase-dead mutant of TβRII lost the interaction with PTH1R (data not shown) even with treatment of PTH. The interaction of endogenous PTH1R and TβRII was also examined. […]

[2] = target: PTH1R/LRP6 complex (Homo sapiens, UniProt Q03431); type: cell-based
[3] = target: T2, TGFβRII (Homo sapiens, UniProt P37173+Q03431); assay: TGFβRII internalization in HEK293-PTH1R cells; type: cell-based; conditions: stimulated with PTH for 30 minutes; 90% before stimulation
T2 construct: expressed in transfected cells; host or cells: HEK293-PTH1R (HEK293 stably expressing HA-PTH1R)
Experimental: TGFβRII tagged with Flag epitope was expressed in HEK293 cells that were expressing PTH1R or not, and the transfected cells were treated with PTH or control.
In particular, TGFβ1 treatment increases the number of cell membrane PTH1R. Therefore, the potential functional relationship of PTH with TGFβRII was examined. TGFβRII tagged with Flag epitope was transiently expressed in embryonic kidney 293 (HEK293) cells or HEK293 cells stably expressing PTH1R with HA (HEK293-PTH1R). In the absence of PTH, TGFβRII was present predominantly at the cell surface, with a few puncta in the cytosol (data not shown). […] To visualize the effect of PTH to the TβRII, a red fluorescent PTH (1-34) was synthesized in which the TMR fluorophore was attached to the side chain of the lysine residue at position 13 in PTH (1-34) (PTH^TMR).
To quantitate these observations, the cells were fixed at various time points and classified as three types: (1) TGFβRII is dominantly present at the cell surface, (2) TGFβRII locates to both the cell surface and vesicles in the cytosol, and (3) TGFβRII mainly localizes to the cytosol as vesicles. Before stimulation with PTH, TGFβRII was present at the cell surface in 90% of the cells. […] From 10 to 30 minutes after stimulation with PTH (1-34), cell-surface TβRII levels were reduced, indicative of receptor clearance from the cell surface membrane (FIG. 10B). […]

[4] = test system: LRP5/Axin binding; assay: Axin-LRP5 binding immunoprecipitation; type: cell-based; conditions: significantly induced at 30 minutes; data not shown
From the text: If the observation is true, then the phosphorylated PPPSP motif will serve as an Axin docking site.
GSK3β is involved in PTH-stimulated LRP6 phosphorylation at its PPPSP motifs. However, the phosphorylation of LRP5 by PTH was very strong and seems GSK3β-unrelated. Since LRP6N, the extracellular domain with transmembrane region, functions as dominant-negative, we examined whether it inhibits PTH-induced Axin binding with LRP5/6.

[5] = test system: β-catenin; assay: β-catenin protein levels in HEK293 cells; type: cell-based; conditions: different concentrations and time points
Experimental: In parallel, proteins from cytosolic and nuclear fractions were isolated from the UMR 106 cells after a 30 minute treatment with control medium, Wnt-3a conditioned medium, or 5×10^−7 M PTH (1-84). The proteins were transferred to a blotting membrane, and the immunoblots were stained with an anti-β-catenin antibody or antibody to a control protein (α-tubulin or histone). […] Moreover, cytosolic and nuclear β-catenin protein levels also were examined in embryonic kidney epithelial cells (HEK293) that were treated with different concentrations of PTH and harvested at different time points.

[6] = test system: LRP5/6; assay: Immunostaining of phosphorylated PPPSP motif of LRP5/6 in rat trabecular bone; type: in vivo; conditions: rats, single PTH injection
Experimental: To further examine whether LRP5/6 mediates PTH-elevated β-catenin levels in vivo, trabecular bone sections were immunostained with the antibody against phosphorylated PPPSP motif. Formalin-fixed tissue sections of 5 μm thickness were deparaffinized in xylene and rehydrated in graded alcohols. Antigen retrieval was achieved by incubating tissue sections in boiling 10 mmol/L citrate buffer (pH 6.0) for 5 minutes in a microwave oven. All sections were then incubated with hydrogen peroxide for 5 minutes. Subsequently, sections were incubated with the primary antibodies against β-catenin or LRP6 1490 for 1 hour at room temperature. After rinsing the primary antibody in T-PBS, antibody detection was accomplished using the Super Sensitive biotin-streptavidin horseradish peroxidase detection kit (Biogenex, San Ramon, Calif.). The diaminobenzidine tetrachloride Super Sensitive substrate kit (Biogenex, San Ramon, Calif.) was used to visualize the antibody-antigen complex. The sections were then counterstained with hematoxylin. Appropriate negative controls, consisting of tissue sections of each case processed without the addition of primary antibody, were prepared along with positive multitissue control sections. Only those cases with greater than 10% immunohistochemical stains were considered as positive. Assessment of the immunohistochemical staining was performed independently by two pathologists. Contrasting results were discussed until an agreement was reached.
The pattern of phosphorylated LRP5/6 was correlated with the changes of β-catenin levels induced by PTH in Rat osteoblasts.

T2 sequence (P37173 23-567): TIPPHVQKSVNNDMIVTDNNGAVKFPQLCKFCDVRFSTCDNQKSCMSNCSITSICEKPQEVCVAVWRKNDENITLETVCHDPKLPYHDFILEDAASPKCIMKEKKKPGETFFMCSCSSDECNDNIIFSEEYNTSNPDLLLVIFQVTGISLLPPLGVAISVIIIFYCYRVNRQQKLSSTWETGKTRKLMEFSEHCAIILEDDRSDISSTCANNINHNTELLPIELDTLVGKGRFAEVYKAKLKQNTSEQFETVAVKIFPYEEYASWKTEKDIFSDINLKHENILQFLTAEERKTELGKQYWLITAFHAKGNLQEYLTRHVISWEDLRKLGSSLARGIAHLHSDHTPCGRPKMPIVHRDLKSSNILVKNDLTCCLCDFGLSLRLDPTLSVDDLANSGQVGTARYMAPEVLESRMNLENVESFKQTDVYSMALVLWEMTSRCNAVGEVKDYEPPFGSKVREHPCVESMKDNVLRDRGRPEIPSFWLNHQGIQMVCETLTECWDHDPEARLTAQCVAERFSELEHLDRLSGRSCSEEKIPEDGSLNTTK
T2 sequence (Q03431 27-593): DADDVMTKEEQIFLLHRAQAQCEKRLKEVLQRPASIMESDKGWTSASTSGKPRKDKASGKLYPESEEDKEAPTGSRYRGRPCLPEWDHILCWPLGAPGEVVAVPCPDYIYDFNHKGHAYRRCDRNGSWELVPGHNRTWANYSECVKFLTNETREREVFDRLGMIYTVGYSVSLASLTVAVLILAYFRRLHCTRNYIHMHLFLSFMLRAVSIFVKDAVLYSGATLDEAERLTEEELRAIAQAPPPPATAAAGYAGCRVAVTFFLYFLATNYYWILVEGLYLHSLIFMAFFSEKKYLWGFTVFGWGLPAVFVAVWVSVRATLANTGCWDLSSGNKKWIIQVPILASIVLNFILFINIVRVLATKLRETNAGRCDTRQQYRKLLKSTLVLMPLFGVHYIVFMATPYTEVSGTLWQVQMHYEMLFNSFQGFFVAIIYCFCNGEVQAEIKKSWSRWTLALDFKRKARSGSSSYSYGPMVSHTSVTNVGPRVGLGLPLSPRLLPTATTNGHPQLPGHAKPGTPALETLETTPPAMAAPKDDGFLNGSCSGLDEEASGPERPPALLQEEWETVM
T1 sequence (Q03431 27-593): as above
T1 sequence (P37173 23-567): as the sequence (P37173 23-567) above

In the case of “PTH: Parathyroid hormone ligand, form not stated at the place; figure legends give PTH (1-84) or PTH (1-34)”, the “interaction of PTH1R-HA with Flag-TβRII” value [1] is reported as “enhanced”, the “enhancement of interaction of PTH1R with LRP6N or LRP6” value [2] is reported as “did not enhance the interaction of PTH1R with LRP6N or LRP6” and the “LRP6-associated PTH ligand (anti-VSVG immunoprecipitates, anti-PTH blot)” value ([2]; HEK 293 cells, 5×10^−7 M PTH (1-84) for 1 hour) is reported as “immunoprecipitated only when both LRP6 and PTH1R were cotransfected”. The “cells exhibiting cell-surface localization of TGFβRII” value [3] was “less than 10%”, the “binding of Axin to LRP5” value [4] was “induced binding of Axin to LRP5” and the “cytosolic and nuclear β-catenin protein levels” value [5] was “stimulates protein levels of β-catenin in both the cytoplasm and the nucleus in a concentration and time dependent manner”. For the same substance, the “peak of LRP5/6 phosphorylation after PTH injection” value [6] was 8 h, the “start of LRP5/6 phosphorylation after PTH injection” value [6] was 2 h and the “LRP5/6 phosphorylation at 24 hours” value ([6]; 24 hours) was “disappearing”. The “phosphorylation of LRP5/6 in preosteoblasts/osteoblasts at the surface of trabecular bone” value ([6]; data not shown) was “enhanced phosphorylation of LRP5/6” and the “total LRP5/6 protein level in osteoblasts of rat tibia bone” value ([6]; data not shown) was “remained unchanged”.
